According to the NIST ThermoML archive (doi:10.1016/j.fluid.2005.06.019):

Tests used:
[1] = refractive index (Na D-line) (dimensionless); settings: 298.15 K; 101.33 kPa; Liquid; Standard Abbe refractometry
[2] = Liquid; for mass density: 101.33 kPa

CC(C)CO [2-methyl-1-propanol]
Settings	refractive index
[1]	1.3937

[2]
Settings	mass density [kg/m3]	vapor or sublimation pressure [kPa]
298.15 K	797.83	–
381.09 K	–	101.3

CCCCCCO [hexan-1-ol]
Settings	refractive index
[1]	1.4162

[2]
Settings	mass density [kg/m3]	vapor or sublimation pressure [kPa]
298.15 K	814.85	–
356.39 K	–	5
364.42 K	–	7.5
368.04 K	–	8.9
372.23 K	–	10.9
376.68 K	–	13.4
379.61 K	–	15.3
384.92 K	–	19.3
384.93 K	–	19.3
390.31 K	–	24.2
394.34 K	–	28.5
398.14 K	–	33.1
401.57 K	–	37.8
404.56 K	–	42.3
407.43 K	–	47.1
410.27 K	–	52.2
412.75 K	–	57
414.93 K	–	61.5
417.18 K	–	66.4
417.28 K	–	66.7
419.52 K	–	71.9
421.96 K	–	78
424.54 K	–	84.8
426.31 K	–	89.8
428.2 K	–	95.3
429.97 K	–	100.8
430 K	–	101.5
430.06 K	–	101.3
430.26 K	–	101.7

CC(=O)OCC(C)C [2-methylpropyl ethanoate]
Settings	refractive index
[1]	1.3876

[2]
Settings	mass density [kg/m3]	vapor or sublimation pressure [kPa]
293.15 K	866.12	–
389.9 K	–	101.3
